pEC50: −log10 of the molar value.
Biological target: Coagulation factor XI (Homo sapiens, UniProt P03951)
Experiment: Inhibition of human coagulation factor 11 assessed as inhibition of factor 12a mediated activation using z-GPR-AFC measured after 60 mins by fluorescence assay

Sequence of Coagulation factor XI (P03951 19-387 limits assumed): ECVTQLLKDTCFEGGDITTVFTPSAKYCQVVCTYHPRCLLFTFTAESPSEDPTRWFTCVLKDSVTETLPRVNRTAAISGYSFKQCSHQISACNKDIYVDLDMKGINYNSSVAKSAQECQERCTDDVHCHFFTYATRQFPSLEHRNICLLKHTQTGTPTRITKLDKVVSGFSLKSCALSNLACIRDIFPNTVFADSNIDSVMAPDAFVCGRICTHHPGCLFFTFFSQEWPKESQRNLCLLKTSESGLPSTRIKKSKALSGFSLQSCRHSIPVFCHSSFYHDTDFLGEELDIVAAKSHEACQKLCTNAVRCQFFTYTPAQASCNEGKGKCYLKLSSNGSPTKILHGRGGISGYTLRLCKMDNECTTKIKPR
Sequence of Coagulation factor XI (P03951 388-625 limits assumed): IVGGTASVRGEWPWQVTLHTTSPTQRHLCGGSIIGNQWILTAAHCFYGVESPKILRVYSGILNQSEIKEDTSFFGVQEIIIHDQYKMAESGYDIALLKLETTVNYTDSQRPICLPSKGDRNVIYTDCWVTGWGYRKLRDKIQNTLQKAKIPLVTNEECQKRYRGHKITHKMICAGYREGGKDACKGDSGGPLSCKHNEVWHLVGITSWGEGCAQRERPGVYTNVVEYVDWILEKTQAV

pEC50: 8.42
SMILES: Cc1cnn(C2CCN(C(=O)c3cc(C(=O)N4CCCCC4)c4cc(OCc5ncc(C(F)(F)F)cc5Cl)ncc4c3)CC2)c1
